ChEMBL document CHEMBL1150596, “Gymnasterkoreaynes A-F, cytotoxic polyacetylenes from Gymnaster koraiensis” (2002)
≈ marks a conversion by molar mass, not a printed value.

System: L1210
Assay: Cytotoxicity against mouse L1210 cells after 48 hrs by WST-1 assay
Assay type: functional
Details: L1210, 48 h, read-out: ED50 (the source's name)

SMILES	EC50 [µg/mL]
C=CCCCCC/C=C\C(O)C#CC#C/C=C/C (stereo not drawn)	10.4 (≈ 42.9 µM)
C=CCCCCC/C=C\C(O)C#CC#CC(O)C=C (stereo not drawn)	0.12 (≈ 0.464 µM)
C/C=C/C#CC#C[C@H](O)CCO [GYMNASTERKOREAYNE A]	> 10
C=CCCCCC/C=C\[C@H](O)C#CC#CC1OC1C (stereo partly drawn) [GYMNASTERKOREAYNE B]	3.3 (≈ 12.8 µM)
C=CCCCCC/C=C\[C@H](O)C#CC#C[C@H](C=C)OC(C)=O [GYMNASTERKOREAYNE C]	2.1 (≈ 6.99 µM)
C=CCCCCC/C=C\[C@H](O)C#CC#C/C=C/COC(C)=O [GYMNASTERKOREAYNE D]	7.7 (≈ 25.6 µM)
C=CCCCCC/C=C/[C@H](O)C#CC#C[C@@H](O)[C@H](C)O [GYMNASTERKOREAYNE E]	9.6 (≈ 34.7 µM)
C=CCCCCC/C=C\[C@H](O)C#CC#C/C=C/CO [GYMNASTERKOREAYNE F]	3.1 (≈ 12 µM)
